Assay results: article PMC6830212, “Crystal structure of the putative cyclase IdmH from the indanomycin nonribosomal peptide synthase/polyketide synthase” (IUCrJ, 2019)

B1: wild-type IdmH (full-length putative indane cyclase from the indanomycin NRPS/PKS pathway) (enzyme, UniProt C5HV10 1-145, looked up)
chain: MAHQPSDTIAGLYEAFNSGDLETLRELIAPDAVIHLPGTAGDAEHPPGTPRDREGWLGVWQFTQAFFPDMTATVQDIVQTGDLVATRCVARGTHSIEFMGVPPTGRPFEMTMLNMSRVRDGRIVEHWTISDNVTMLAQLGVKASL
notes: IdmH, Streptomyces antibioticus NRRL 8167, full-length idmH gene (ACN69984.1) amplified from genomic DNA; 145 amino acids as printed; Cloned in pET-28a at NdeI; residues of the thrombin site may remain at the N-terminus after cleavage (surmised); also called full-length IdmH; native IdmH; source: E. coli BL21(DE3), purified (HisTrap, thrombin cleavage, HiTrap Q, Superdex 75 SEC); not shown: His6, …

Columns and labels:
IdmH = target: T1, IdmH (Streptomyces antibioticus, UniProt C5HV10); assay: 1H-15N HSQC-TROSY chemical shift perturbation titration; format: binding; settings: 0.2 mM 15N-labelled IdmH, 0-200 uM indanomycin; 20 mM Tris pH 7.3, 50 mM NaCl, 1 mM DTT, 25 C; proposed active-site pocket; proposed (not shown) reaction product
T1 construct: full length (145 residues), N-terminal His6 tag with thrombin site (pET-28a), E. coli BL21(DE3); homodimer

[1] = target: the molecule itself; assay: SEC + other: LC/MS; oligomeric state of purified, tag-cleaved wild-type IdmH; conditions of this analysis not told in the text (Supplementary Fig. S4)

Molecule	1H-15N HSQC-TROSY chemical shift perturbation titration (IdmH)	stoichiometry N [1]
CC/C(=C\C=C\[C@@H]1C=C[C@@H]2[C@@H](CC)CC[C@H]2[C@@H]1C(=O)c1ccc[nH]1)[C@@H]1O[C@@H]([C@@H](C)C(=O)O)CC[C@@H]1C [compound 1, indanomycin]	indanomycin can bind to IdmH in the proposed active site	–
B1	–	2
